The source made the active and inactive calls. The calls are words filed in the database; no cut-off is given here.
Key:
Rattus norvegicus [1] = experiment: Antihypertensive activity in Wistar rat invasive arterial pressure model assessed as reduction of diastolic pressure at 1 mg/kg, iv; format: functional, organism-based; parameters: dose 1 mg/kg; conditions: Artery
[2] = Octanol-water partition coefficient, log P of the compound
Rattus norvegicus [3] = experiment: Antiarrhythmic activity in Wistar rat invasive arterial pressure model assessed as reduction of heart rate at 0.1 mg/kg, iv; format: functional, organism-based; parameters: dose 0.1 mg/kg
Rattus norvegicus [4] = experiment: Antihypertensive activity in Wistar rat invasive arterial pressure model assessed as reduction of systolic pressure at 1 mg/kg, iv; format: functional, organism-based; parameters: dose 1 mg/kg; conditions: Artery
Rattus norvegicus [5] = experiment: Antihypertensive activity in Wistar rat invasive arterial pressure model assessed as reduction of diastolic pressure at 0.1 mg/kg, iv; format: functional, organism-based; parameters: dose 0.1 mg/kg; conditions: Artery
Rattus norvegicus [6] = experiment: Antihypertensive activity in spontaneous hypertensive rat model assessed as reduction of diastolic pressure at 0.1 mg/kg, po after 120 mins; format: functional, organism-based; parameters: dose 0.1 mg/kg
Rattus norvegicus [7] = experiment: Antihypertensive activity in spontaneous hypertensive rat model assessed as reduction of diastolic pressure at 0.1 mg/kg, po after 50 mins; format: functional, organism-based; parameters: dose 0.1 mg/kg
Rattus norvegicus [8] = experiment: Antihypertensive activity in spontaneous hypertensive rat model assessed as reduction of systolic pressure at 0.1 mg/kg, po after 120 mins; format: functional, organism-based; parameters: dose 0.1 mg/kg
Rattus norvegicus [9] = experiment: Antihypertensive activity in Wistar rat invasive arterial pressure model assessed as reduction of systolic pressure at 0.1 mg/kg, iv; format: functional, organism-based; parameters: dose 0.1 mg/kg; conditions: Artery
Rattus norvegicus [10] = experiment: Antiarrhythmic activity in spontaneous hypertensive rat model assessed as reduction of heart rate at 0.1 mg/kg, po after 120 mins; format: functional, organism-based; parameters: dose 0.1 mg/kg
Rattus norvegicus [11] = experiment: Antiarrhythmic activity in spontaneous hypertensive rat model assessed as reduction of heart rate at 0.1 mg/kg, po after 40 mins; format: functional, organism-based; parameters: dose 0.1 mg/kg
Rattus norvegicus [12] = experiment: Antihypertensive activity in spontaneous hypertensive rat model assessed as reduction of systolic pressure at 0.1 mg/kg, po after 50 mins; format: functional, organism-based; parameters: dose 0.1 mg/kg

logP [2]	SMILES	Activity (Rattus norvegicus [1])	Activity (Rattus norvegicus [3])	Activity (Rattus norvegicus [4])	also measured
1.96	CC(C)(C)c1ccc(O)c(CN2CCSCC2)c1	Active	Active	Active	
2.03	CC(C)(C)c1cc(CN2CCSCC2)c(O)c(CN2CCSCC2)c1	Active	Active	Active	
1.02	C[C@H](CS)C(=O)N1CCC[C@H]1C(=O)O [CAPTOPRIL]				
4.01	CCCCc1nc(Cl)c(CO)n1Cc1ccc(-c2ccccc2-c2nn[nH]n2)cc1 [LOSARTAN]				
> 3.05	Oc1ccc(Cl)cc1CN1CCSCC1	Active	Active	Active	
2.7	CCOC(=O)C1=C(C)NC(C)=C(C(=O)OCC)C1c1cc(CN2CCOCC2)c(O)c(CN2CCOCC2)c1		Active		Activity (Rattus norvegicus [5]): Active; Activity (Rattus norvegicus [6]): Active; Activity (Rattus norvegicus [7]): Active; Activity (Rattus norvegicus [8]): Active; Activity (Rattus norvegicus [9]): Active; Activity (Rattus norvegicus [10]): Active; Activity (Rattus norvegicus [11]): Active; Activity (Rattus norvegicus [12]): Active

From ChEMBL document CHEMBL1250504, “Antihypertensive and antiarrhythmic properties of a para-hydroxy[bis(ortho-morpholinylmethyl)]phenyl-1,4-DHP compound: comparison with other compounds of the same kind and relationship with logP values” (Eur J Med Chem, 2010)
